target: T1, TNIK (Homo sapiens, UniProt Q9UKE5); assay: KINOMEscan competition binding (immobilised reference ligand, qPCR); conditions: read-out: % Ctrl / 10 μM
T1 construct: kinase domain, DNA-tagged, KINOMEscan commercial panel
Description: KINOMEscan competition binding (immobilised reference ligand, qPCR) on TNIK

T1 sequence (Q9UKE5 25-289 limits assumed): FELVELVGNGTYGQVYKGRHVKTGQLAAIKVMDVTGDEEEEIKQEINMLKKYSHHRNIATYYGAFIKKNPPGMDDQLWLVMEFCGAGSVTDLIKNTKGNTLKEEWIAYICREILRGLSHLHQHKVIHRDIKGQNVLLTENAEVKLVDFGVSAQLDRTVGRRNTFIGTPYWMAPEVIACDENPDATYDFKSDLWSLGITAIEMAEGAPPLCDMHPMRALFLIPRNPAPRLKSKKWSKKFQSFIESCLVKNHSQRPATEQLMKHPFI

Going from Cc1nc(Nc2ncc(C(=O)Nc3c(C)cccc3Cl)s2)cc(N2CCN(CCO)CC2)n1 [Dasatinib] to CN1CC[C@H](c2c(O)cc(O)c3c(=O)cc(-c4ccccc4Cl)oc23)[C@H](O)C1 [Flavopiridol], the remaining binding at 10 µM rises from 11% to 33%.

Work on COC(=O)Nc1nc2cc(C(=O)c3ccccc3)ccc2[nH]1 [Mebendazole] yielded a remaining binding at 10 µM of 8.2%.
